# Data: the NIST ThermoML archive (doi:10.1021/je060170c)
# Numbers after ± are expanded uncertainties.
# Assay: xn = mol fraction of the nth substance listed
# Conditions: 101 kPa, Liquid; for viscosity: Anton Paar Stabinger viscometer
smiles,measurement,setting,value
COc1ccccc1 [anisole] + c1ccccc1,viscosity,"288.15 K, x1 = 0.097",0.747 ± 0.015 mPa·s
same,viscosity,"288.15 K, x1 = 0.175",0.777 ± 0.016 mPa·s
same,viscosity,"288.15 K, x1 = 0.274",0.817 ± 0.017 mPa·s
same,viscosity,"288.15 K, x1 = 0.368",0.856 ± 0.018 mPa·s
same,viscosity,"288.15 K, x1 = 0.4971",0.915 ± 0.019 mPa·s
same,viscosity,"288.15 K, x1 = 0.623",0.976 ± 0.02 mPa·s
same,viscosity,"288.15 K, x1 = 0.72",1.027 ± 0.021 mPa·s
same,viscosity,"288.15 K, x1 = 0.8003",1.072 ± 0.022 mPa·s
same,viscosity,"288.15 K, x1 = 0.8895",1.126 ± 0.023 mPa·s
same,viscosity,"288.15 K, x1 = 1",1.188 ± 0.024 mPa·s
same,mass density,"288.15 K, x1 = 0.097",897.546 ± 0.33 kg/m3
same,speed of sound,"288.15 K, x1 = 0.097",1356.8 ± 5.5 m/s
same,mass density,"288.15 K, x1 = 0.175",907.884 ± 0.32 kg/m3
same,speed of sound,"288.15 K, x1 = 0.175",1364.5 ± 5.5 m/s
same,mass density,"288.15 K, x1 = 0.274",920.511 ± 0.3 kg/m3
same,speed of sound,"288.15 K, x1 = 0.274",1374.4 ± 5.5 m/s
same,mass density,"288.15 K, x1 = 0.368",932.009 ± 0.29 kg/m3
same,speed of sound,"288.15 K, x1 = 0.368",1383.8 ± 5.6 m/s
same,mass density,"288.15 K, x1 = 0.4971",947.045 ± 0.27 kg/m3
same,speed of sound,"288.15 K, x1 = 0.4971",1395.2 ± 5.6 m/s
same,mass density,"288.15 K, x1 = 0.623",960.925 ± 0.26 kg/m3
same,speed of sound,"288.15 K, x1 = 0.623",1406.8 ± 5.7 m/s
same,mass density,"288.15 K, x1 = 0.72",971.118 ± 0.25 kg/m3
same,speed of sound,"288.15 K, x1 = 0.72",1418.4 ± 5.7 m/s
same,mass density,"288.15 K, x1 = 0.8003",979.257 ± 0.24 kg/m3
same,speed of sound,"288.15 K, x1 = 0.8003",1425.2 ± 5.7 m/s
same,mass density,"288.15 K, x1 = 0.8895",988.004 ± 0.23 kg/m3
same,speed of sound,"288.15 K, x1 = 0.8895",1437.5 ± 5.8 m/s
same,mass density,"288.15 K, x1 = 1",998.441 ± 0.23 kg/m3
same,speed of sound,"288.15 K, x1 = 1",1449.1 ± 5.8 m/s
same,viscosity,"293.15 K, x1 = 0.097",0.683 ± 0.014 mPa·s
same,viscosity,"293.15 K, x1 = 0.175",0.71 ± 0.015 mPa·s
same,viscosity,"293.15 K, x1 = 0.274",0.746 ± 0.015 mPa·s
same,viscosity,"293.15 K, x1 = 0.368",0.781 ± 0.016 mPa·s
same,viscosity,"293.15 K, x1 = 0.4971",0.833 ± 0.017 mPa·s
same,viscosity,"293.15 K, x1 = 0.623",0.889 ± 0.018 mPa·s
same,viscosity,"293.15 K, x1 = 0.72",0.936 ± 0.019 mPa·s
same,viscosity,"293.15 K, x1 = 0.8003",0.978 ± 0.02 mPa·s
same,viscosity,"293.15 K, x1 = 0.8895",1.027 ± 0.021 mPa·s
same,viscosity,"293.15 K, x1 = 1",1.084 ± 0.022 mPa·s
same,mass density,"293.15 K, x1 = 0.097",890.999 ± 0.34 kg/m3
same,speed of sound,"293.15 K, x1 = 0.097",1333 ± 5.4 m/s
same,mass density,"293.15 K, x1 = 0.175",901.497 ± 0.33 kg/m3
same,speed of sound,"293.15 K, x1 = 0.175",1340.7 ± 5.4 m/s
same,mass density,"293.15 K, x1 = 0.274",914.322 ± 0.31 kg/m3
same,speed of sound,"293.15 K, x1 = 0.274",1350.8 ± 5.5 m/s
same,mass density,"293.15 K, x1 = 0.368",926.005 ± 0.3 kg/m3
same,speed of sound,"293.15 K, x1 = 0.368",1360.5 ± 5.5 m/s
same,mass density,"293.15 K, x1 = 0.4971",941.295 ± 0.28 kg/m3
same,speed of sound,"293.15 K, x1 = 0.4971",1373.9 ± 5.5 m/s
same,mass density,"293.15 K, x1 = 0.623",955.425 ± 0.27 kg/m3
same,speed of sound,"293.15 K, x1 = 0.623",1387.2 ± 5.6 m/s
same,mass density,"293.15 K, x1 = 0.72",965.807 ± 0.26 kg/m3
same,speed of sound,"293.15 K, x1 = 0.72",1397.5 ± 5.6 m/s
same,mass density,"293.15 K, x1 = 0.8003",974.102 ± 0.25 kg/m3
same,speed of sound,"293.15 K, x1 = 0.8003",1406.1 ± 5.7 m/s
same,mass density,"293.15 K, x1 = 0.8895",983.017 ± 0.24 kg/m3
same,speed of sound,"293.15 K, x1 = 0.8895",1415.9 ± 5.7 m/s
same,mass density,"293.15 K, x1 = 1",993.649 ± 0.23 kg/m3
same,speed of sound,"293.15 K, x1 = 1",1428.5 ± 5.7 m/s
same,viscosity,"298.15 K, x1 = 0.097",0.638 ± 0.013 mPa·s
same,viscosity,"298.15 K, x1 = 0.175",0.664 ± 0.014 mPa·s
same,viscosity,"298.15 K, x1 = 0.274",0.697 ± 0.014 mPa·s
same,viscosity,"298.15 K, x1 = 0.368",0.73 ± 0.015 mPa·s
same,viscosity,"298.15 K, x1 = 0.4971",0.779 ± 0.016 mPa·s
same,viscosity,"298.15 K, x1 = 0.623",0.831 ± 0.017 mPa·s
same,viscosity,"298.15 K, x1 = 0.72",0.877 ± 0.018 mPa·s
same,viscosity,"298.15 K, x1 = 0.8003",0.918 ± 0.019 mPa·s
same,viscosity,"298.15 K, x1 = 0.8895",0.963 ± 0.02 mPa·s
same,viscosity,"298.15 K, x1 = 1",1.017 ± 0.021 mPa·s
same,mass density,"298.15 K, x1 = 0.097",887.083 ± 0.34 kg/m3
same,speed of sound,"298.15 K, x1 = 0.097",1309.3 ± 5.3 m/s
same,mass density,"298.15 K, x1 = 0.175",897.532 ± 0.33 kg/m3
same,speed of sound,"298.15 K, x1 = 0.175",1317 ± 5.4 m/s
same,mass density,"298.15 K, x1 = 0.274",910.286 ± 0.32 kg/m3
same,speed of sound,"298.15 K, x1 = 0.274",1327.1 ± 5.4 m/s
same,mass density,"298.15 K, x1 = 0.368",921.904 ± 0.3 kg/m3
same,speed of sound,"298.15 K, x1 = 0.368",1337 ± 5.4 m/s
same,mass density,"298.15 K, x1 = 0.4971",937.104 ± 0.29 kg/m3
same,speed of sound,"298.15 K, x1 = 0.4971",1350.8 ± 5.5 m/s
same,mass density,"298.15 K, x1 = 0.623",951.156 ± 0.27 kg/m3
same,speed of sound,"298.15 K, x1 = 0.623",1364.6 ± 5.5 m/s
same,mass density,"298.15 K, x1 = 0.72",961.483 ± 0.26 kg/m3
same,speed of sound,"298.15 K, x1 = 0.72",1375.5 ± 5.5 m/s
same,mass density,"298.15 K, x1 = 0.8003",969.734 ± 0.26 kg/m3
same,speed of sound,"298.15 K, x1 = 0.8003",1384.6 ± 5.6 m/s
same,mass density,"298.15 K, x1 = 0.8895",978.597 ± 0.25 kg/m3
same,speed of sound,"298.15 K, x1 = 0.8895",1394.8 ± 5.6 m/s
same,mass density,"298.15 K, x1 = 1",989.15 ± 0.24 kg/m3
same,speed of sound,"298.15 K, x1 = 1",1408 ± 5.7 m/s
same,viscosity,"303.15 K, x1 = 0.097",0.601 ± 0.012 mPa·s
same,viscosity,"303.15 K, x1 = 0.175",0.623 ± 0.013 mPa·s
same,viscosity,"303.15 K, x1 = 0.274",0.651 ± 0.013 mPa·s
same,viscosity,"303.15 K, x1 = 0.368",0.679 ± 0.014 mPa·s
same,viscosity,"303.15 K, x1 = 0.4971",0.72 ± 0.015 mPa·s
same,viscosity,"303.15 K, x1 = 0.623",0.767 ± 0.016 mPa·s
same,viscosity,"303.15 K, x1 = 0.72",0.808 ± 0.017 mPa·s
same,viscosity,"303.15 K, x1 = 0.8003",0.844 ± 0.017 mPa·s
same,viscosity,"303.15 K, x1 = 0.8895",0.883 ± 0.018 mPa·s
same,viscosity,"303.15 K, x1 = 1",0.931 ± 0.019 mPa·s
same,mass density,"303.15 K, x1 = 0.097",881.745 ± 0.35 kg/m3
same,speed of sound,"303.15 K, x1 = 0.097",1286.9 ± 5.3 m/s
same,mass density,"303.15 K, x1 = 0.175",892.244 ± 0.34 kg/m3
same,speed of sound,"303.15 K, x1 = 0.175",1295.4 ± 5.3 m/s
same,mass density,"303.15 K, x1 = 0.274",905.059 ± 0.33 kg/m3
same,speed of sound,"303.15 K, x1 = 0.274",1306.3 ± 5.3 m/s
same,mass density,"303.15 K, x1 = 0.368",916.731 ± 0.31 kg/m3
same,speed of sound,"303.15 K, x1 = 0.368",1316.6 ± 5.4 m/s
same,mass density,"303.15 K, x1 = 0.4971",932.013 ± 0.3 kg/m3
same,speed of sound,"303.15 K, x1 = 0.4971",1330.9 ± 5.4 m/s
same,mass density,"303.15 K, x1 = 0.623",946.146 ± 0.28 kg/m3
same,speed of sound,"303.15 K, x1 = 0.623",1345 ± 5.5 m/s
same,mass density,"303.15 K, x1 = 0.72",956.542 ± 0.27 kg/m3
same,speed of sound,"303.15 K, x1 = 0.72",1355.8 ± 5.5 m/s
same,mass density,"303.15 K, x1 = 0.8003",964.845 ± 0.26 kg/m3
same,speed of sound,"303.15 K, x1 = 0.8003",1364.9 ± 5.5 m/s
same,mass density,"303.15 K, x1 = 0.8895",973.764 ± 0.26 kg/m3
same,speed of sound,"303.15 K, x1 = 0.8895",1375.1 ± 5.6 m/s
same,mass density,"303.15 K, x1 = 1",984.374 ± 0.24 kg/m3
same,speed of sound,"303.15 K, x1 = 1",1387.7 ± 5.6 m/s
